Laboratory results taken from ChEMBL document CHEMBL4177697, “N-Me-trichodermamide B isolated from Penicillium janthinellum, with antioxidant properties through Nrf2-mediated signaling pathway” (Bioorg Med Chem, 2017).
Active and inactive are the calls of the source. The rule behind the calls is not given here.

Tests used:
[1] = system: HaCaT; assay: Induction of ARE promoter activity in human HaCaT cells transfected with Nrf2-siRNA at 5 to 20 uM after 6 hrs by luciferase reporter gene assay; assay type: functional, cell-based
[2] = molecular target: T1, Nuclear factor erythroid 2-related factor 2 (Homo sapiens) (UniProt Q16236); assay: Activation of Nrf2 in human HaCaT cells transfected with ARE-luciferase containing ARE consensus sequence assessed as Nrf2 binding to ARE at 20 uM after 6 hrs by luciferase reporter gene assay; assay type: cell-based
T1 sequence (whole entry): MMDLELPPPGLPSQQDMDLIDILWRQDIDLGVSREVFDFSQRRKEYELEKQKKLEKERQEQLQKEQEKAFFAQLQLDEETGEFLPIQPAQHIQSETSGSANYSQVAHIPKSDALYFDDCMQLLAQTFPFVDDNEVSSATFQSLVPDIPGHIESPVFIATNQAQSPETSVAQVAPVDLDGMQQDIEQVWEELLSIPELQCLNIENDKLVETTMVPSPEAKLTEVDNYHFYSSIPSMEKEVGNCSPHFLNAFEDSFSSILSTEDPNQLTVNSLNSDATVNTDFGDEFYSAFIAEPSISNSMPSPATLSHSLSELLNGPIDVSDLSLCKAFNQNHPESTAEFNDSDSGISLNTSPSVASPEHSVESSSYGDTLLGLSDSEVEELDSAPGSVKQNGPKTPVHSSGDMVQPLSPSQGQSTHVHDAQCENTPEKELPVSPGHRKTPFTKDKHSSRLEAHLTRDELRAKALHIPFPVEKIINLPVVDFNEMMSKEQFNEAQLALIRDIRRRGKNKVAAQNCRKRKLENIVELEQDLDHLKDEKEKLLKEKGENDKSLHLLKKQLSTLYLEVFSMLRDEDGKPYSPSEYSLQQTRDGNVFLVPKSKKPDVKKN

[3] = molecular target: T1, Nuclear factor erythroid 2-related factor 2 (Homo sapiens); assay: Activation of Nrf2 in human HaCaT cells assessed as increase in HO-1 mRNA expression at 20 uM by Western blot analysis; assay type: cell-based; details: TDE = time-dependent effect
[4] = molecular target: T2, MAP kinase p38 (Homo sapiens) (UniProt O15264+Q15759+Q16539+P53778); assay: Induction of MAPK p38 phosphorylation in human HaCaT cells at 20 uM up to 6 hrs by Western blot analysis; assay type: cell-based
[5] = system: A549; assay: Cytotoxicity against human A549 cells at 10 uM; assay type: functional, cell-based
[6] = system: HaCaT; assay: Upregulation of HO-1 protein expression in human HaCaT cells transfected with Nrf2-siRNA at 20 uM after 6 hrs by Western blot analysis; assay type: functional, cell-based
[7] = molecular target: T1, Nuclear factor erythroid 2-related factor 2 (Homo sapiens); assay: Activation of Nrf2 in human HaCaT cells assessed as increase in HO-1 mRNA expression after 12 hrs by RT-qPCR analysis; assay type: cell-based
[8] = molecular target: T2, MAP kinase p38 (Homo sapiens); assay: Activation of MAPK p38 in human HaCaT cells assessed as upregulation of Nrf2 protein expression in nucleus at 20 uM after 6 hrs in presence of MAPK p38 inhibitor SB239063 by Western blot analysis; assay type: cell-based
[9] = molecular target: T2, MAP kinase p38 (Homo sapiens); assay: Activation of MAPK p38 in human HaCaT cells assessed as upregulation of Nrf2 mRNA expression at 20 uM measured up to 6 hrs RT-qPCR analysis; assay type: cell-based
[10] = molecular target: T2, MAP kinase p38 (Homo sapiens); assay: Activation of MAPK p38 in human HaCaT cells assessed as nuclear translocation of Nrf2 at 10 uM measured after 6 hrs Western blot analysis; assay type: cell-based
[11] = molecular target: T2, MAP kinase p38 (Homo sapiens); assay: Induction of MAPK p38 phosphorylation in human HaCaT cells at 20 uM after 2 hrs in presence of MAPK p38 inhibitor SB239063 by Western blot analysis; assay type: cell-based
[12] = molecular target: T2, MAP kinase p38 (Homo sapiens); assay: Activation of MAPK p38 in human HaCaT cells assessed as nuclear translocation of Nrf2 at 20 uM after 6 hrs by DAPI staining-based immunofluorescence microscopic method; assay type: cell-based
[13] = molecular target: T1, Nuclear factor erythroid 2-related factor 2 (Homo sapiens); assay: Activation of Nrf2 in human HaCaT cells assessed as increase in HO-1 expression level after 12 hrs by Western blot analysis; assay type: cell-based
[14] = molecular target: T2, MAP kinase p38 (Homo sapiens); assay: Activation of MAPK p38 in human HaCaT cells assessed as upregulation of Nrf2 mRNA expression measured up to 6 hrs RT-qPCR analysis; assay type: cell-based
[15] = system: PC-9; assay: Cytotoxicity against human PC9 cells at 10 uM; assay type: functional, cell-based
[16] = system: HaCaT; assay: Cytoprotective activity against H2O2-induced cell damage in human HaCaT cells assessed as cell survival preincubated for 20 hrs followed by H2O2 addition measured after 4 hrs by WST-8 assay; assay type: functional, cell-based
[17] = molecular target: T2, MAP kinase p38 (Homo sapiens); assay: Activation of MAPK p38 in human HaCaT cells assessed as nuclear translocation of Nrf2 measured after 6 hrs by Western blot analysis; assay type: cell-based
[18] = system: HaCaT; assay: Cytotoxicity against human HaCaT cells assessed as reduction in cell viability at 5 to 20 uM after 24 to 48 hrs by WST-8 assay; assay type: cell-based
[19] = system: HaCaT; assay: Upregulation of Nrf2 protein expression in human HaCaT cells transfected with Nrf2-siRNA at 20 uM after 6 hrs by Western blot analysis; assay type: functional, cell-based
[20] = system: HepG2; assay: Cytotoxicity against human HepG2 cells at 10 uM; assay type: functional, cell-based
[21] = molecular target: T1, Nuclear factor erythroid 2-related factor 2 (Homo sapiens); assay: Activation of Nrf2 in human HaCaT cells assessed as increase in HO-1 expression level at 20 uM by Western blot analysis; assay type: cell-based; details: TDE = time-dependent effect
[22] = molecular target: T1, Nuclear factor erythroid 2-related factor 2 (Homo sapiens); assay: Activation of Nrf2 in human HaCaT cells assessed as upregulation of HO-1 protein expression at 20 uM after 12 hrs in presence of MAPK p38 inhibitor SB239063 by Western blot analysis; assay type: cell-based

## COc1ccc2cc(N(C)C(=O)C3=NO[C@H]4[C@H](O)C=C[C@@H](Cl)[C@@]4(O)C3)c(=O)oc2c1OC
[1]
  Activity: inactive
[2]
  Activity: Active
[3]
  Activity: Tde
[4]
  Activity: Active
[5]
  Activity: Active
[6]
  Activity: inactive
[7]
  Activity: Dose-dependent effect
[8]
  Activity: inactive
[9]
  Activity: Active
[10]
  Activity: Active
[11]
  Activity: inactive
[12]
  Activity: Active
[13]
  Activity: Dose-dependent effect
[14]
  Activity: Dose-dependent effect
[15]
  Activity: Active
[16]
  Activity: Dose-dependent effect
[17]
  Activity: Dose-dependent effect
[18]
  Activity: Non-Toxic
[19]
  Activity: inactive
[20]
  Activity: Active
[21]
  Activity: Tde
[22]
  Activity: inactive

## COc1ccc2cc(NC(=O)C3=NO[C@H]4[C@H](O)C=C[C@@H](Cl)[C@@]4(O)C3)c(=O)oc2c1OC
[5]
  Activity: Active
[15]
  Activity: Active
[20]
  Activity: Active
